Laboratory results reported in patent publication US20090282496A1, “Androgen Receptor Related Methods for Treating Bladder Cancer” (University of Rochester Medical Center, priority 2008, published 2009).
Marks after values point to notes of the source that are not given here.

Tests used:
[1] = tested on: TCC-SUP cells; test: Cell proliferation assay (MTT), TCC-SUP; assay type: cell-based, human; conditions: 6 days; for effect on growth: TCC-SUP subline that expresses AR-siRNA
[2] = tested on: UMUC3 cells; test: Cell proliferation assay (MTT), UMUC3; assay type: cell-based, human; conditions: 6 days; for effect on growth: UMUC3 subline that expresses AR-siRNA
[3] = tested on: TCC-SUP xenograft tumors; test: TCC-SUP mouse xenograft, tumor progression study; assay type: in vivo, male athymic nude mouse
Excerpt: Total RNA from mouse bladder and xenograft tumor tissues and cultured cells was extracted by the acid guanidinium-phenol-chloroform method as previously described (Miyamoto et al., Cancer, 75:2565-70 (1995)) or by using Trizol reagent (Life Science). Isolated RNAs were reverse transcribed to cDNA using random hexamers as described (Miyamoto et al., Cancer, 75:2565-70 (1995) and Miyoshi et al., Prostate, 56:280-6 (2003)), and amplified by PCR using a primer set specific for the AR gene (Miyoshi et al., Prostate, 56:280-6 (2003)). Using the iCycler (Bio-Rad) and the methods previously described by Miyoshi et al., Prostate, 56:280-6 (2003), real-time quantitative PCR analysis of AR, basic fibroblast growth factor (bFGF), vascular endothelial growth factor (VEGF), and matrix metalloproteinase-9 (MMP-9) was performed on the tissue samples from mouse xenograft tumors. The following PCR primers were designed using Beacon Designer 2 (Premier Biosoft): bFGF: 5′-[…]-3′ (SEQ ID NO. 1) and 5′-[…]-3′ (SEQ ID NO. 2), VEGF: 5′-[…]-3′ (SEQ ID NO. 3) and 5′-[…]-3′ (SEQ ID NO. 4), and MMP-9: 5′-[…]-3′ (SEQ ID NO. 5) and 5′-[…]-3′ (SEQ ID NO. 6). β-actin was used as an internal control.
(§1) Bladder cancer cell lines (TCC-SUP, UMUC3, and 5637) were harvested, washed twice with PBS, and resuspended in Matrigel (BD Bioscience) at a final concentration of 1×10^7 cells/mL. Cells (1×10^6 cells in 100 μl per site) were then injected subcutaneously into the right and left flanks of 6-week-old male athymic nude mouse. Treatment (castration or sham surgery, flutamide [0.5 mg/mouse] or placebo pellet injection, and the recently developed anti-AR molecule ASC-J9 (50 mg/Kg or DMSO injection) (Ohtsu et al., J. Med. Chem., 45:5037-42 (2002)) was initiated either (1) at the same time as tumor cell injection (for tumor incidence studies, n=8 mice in each group) or (2) when the sizes of all tumors reached 40 mm^3 (for tumor progression studies, n=12 tumors from 6 mice in each group). Hormonal pellets were replaced as required (every 90 days). Tumor weight was calculated by the following formula: tumor weight (mg)=tumor length (mm)×[tumor width (mm)]^2×0.5 (Geram et al., Cancer Chemother. Rep., 3:47-52 (1972)). Using calipers, each tumor was measured twice a week until either the tumor size reached 40 mm^3 (for tumor incidence study) (Chen et al., Nat. Med., 10:33-9 (2004)), or until the tumor exceeded 10% of the animal's body weight, at which time the mouse was killed (for tumor progression study).

[4] = tested on: TCC-SUP and UMUC3 stable sublines (control-siRNA, AR-siRNA); test: Tumor incidence (tumorigenicity) study of control-siRNA and AR-siRNA sublines in nude mice; assay type: in vivo, male athymic nude mouse
Excerpt: The reporter plasmids [mouse mammary tumor virus (MMTV)-luciferase (Luc) and (ARE)4-Luc (provided by Dr. Michael L. Lu at Harvard Medical School)] as well as a retrovirus vector pMSCV/U6 (Clontech)-AR-siRNA were described in previous studies (Miyamoto et al., Int. J. Cancer, 117:866-72 (2005) and Yeh et al., J. Exp. Med. 198:1899-908 (2003)). Using SuperFect reagent (Qiagen), stable cell lines expressing the AR-siRNA were established by transfecting pMSCV/U6-AR-siRNA into Phi-NX packaging retrovirus producer cells (developed by the Nolan Lab at Stanford University). The target cells (i.e., TCC-SUP, UMUC3, and 5637) were then cultured in the presence of the viral supernatant, and infected cells were selected with puromycin (Sigma).
as §1

[5] = tested on: BBN-induced bladder tumors; conditions: mouse, in vivo
Description: (§2) Animal care was provided in accordance with institutional guidelines. Five to six weeks old ARKO mice (male: n=48; female: n=24) and their wild-type littermates (male: n=48; female: n=24) were supplied ad libitum with tap water containing 0.05% BBN (TCI America) in opaque bottles for 12 weeks, and thereafter with tap water without BBN. To estimate BBN intake, the drinking water was prepared fresh twice a week, and consumption was recorded. […] Before starting BBN treatment, wild-type male mice received surgical castration (n=24) or sham surgery (n=24) at 5 weeks of age. […] Every 90 days, these pellets were replaced. At 20 (n=4 in each group), 30 (n=8 in each group), or 40 (n=12 in each group) weeks of age, the mice were killed by administration of pentobarbital followed by rapid cervical dislocation. Urinary tract specimens were harvested. These specimens were preserved in phosphate-buffered 10% formalin, embedded in paraffin, sectioned, stained with hematoxylin and eosin, and examined microscopically to identify carcinoma or other pathological changes. Paraffin-embedded sections were also used for immunohistochemical analysis. Part of each specimen was rapidly frozen in liquid nitrogen and stored at −80° C. for subsequent RNA analysis.
(§3) Sections (5-7 μm thick) from paraffin-embedded mouse urinary tract tissue and xenograft tumors (see below) were deparaffinized in xylene and rehydrated in a graded ethanol series. Sections were then incubated in 3% hydrogen peroxide to block endogenous peroxidase, with a protein blocking solution containing preimmune rabbit serum, and finally with a 1:500 dilution of primary antibody (rabbit polyclonal anti-proliferating cell nuclear antigen (PCNA) (Santa Cruz). Samples were incubated with peroxidase-conjugated anti-rabbit IgG. The slides were rinsed with PBS, incubated with diaminobenzidine, and finally counterstained with hematoxylin. The TUNEL assay was performed on additional rehydrated sections from paraffin-embedded mouse urinary tract tissue and xenograft tumor using the Fluorescein-FragEL DNA Fragmentation Detection kit (Calbiochem), according to the manufacturer's instructions, followed by counterstaining for DNA with DAPI. The percentage of apoptotic cells was determined by fluorescence microscopy. The percentage of PCNA- and TUNEL-positive cells in 1000 cells counted on each specimen were used to determine the amount of cell proliferation and apoptotic indices, respectively.

[6] = tested on: BBN-induced bladder tumors; conditions: wild-type mice, drinking water with BBN at 0.01-0.05% for 10-20 weeks; previous studies; cited from earlier work
[7] = tested on: AR-negative bladder cancer cell lines (5637); test: Cell proliferation assay (MTT), AR-negative bladder cancer cell lines; assay type: cell-based, human; conditions: AR-negative 5637 subline that expresses AR-siRNA, 6 days
[8] = tested on: BBN-induced bladder tumors; test: BBN-induced mouse bladder cancer model (tumor incidence; PCNA and TUNEL indexes of tumors); conditions: for Carcinoma, No. (%) / Preneoplastic lesions, No. (%): 0.05% BBN
Description: as §2, §3

[9] = target: T1, AR (Homo sapiens, UniProt P10275); conditions: TCC-SUP and UMUC3 cells, MMTV-Luc, 24 h
T1 sequence (P10275 1-920): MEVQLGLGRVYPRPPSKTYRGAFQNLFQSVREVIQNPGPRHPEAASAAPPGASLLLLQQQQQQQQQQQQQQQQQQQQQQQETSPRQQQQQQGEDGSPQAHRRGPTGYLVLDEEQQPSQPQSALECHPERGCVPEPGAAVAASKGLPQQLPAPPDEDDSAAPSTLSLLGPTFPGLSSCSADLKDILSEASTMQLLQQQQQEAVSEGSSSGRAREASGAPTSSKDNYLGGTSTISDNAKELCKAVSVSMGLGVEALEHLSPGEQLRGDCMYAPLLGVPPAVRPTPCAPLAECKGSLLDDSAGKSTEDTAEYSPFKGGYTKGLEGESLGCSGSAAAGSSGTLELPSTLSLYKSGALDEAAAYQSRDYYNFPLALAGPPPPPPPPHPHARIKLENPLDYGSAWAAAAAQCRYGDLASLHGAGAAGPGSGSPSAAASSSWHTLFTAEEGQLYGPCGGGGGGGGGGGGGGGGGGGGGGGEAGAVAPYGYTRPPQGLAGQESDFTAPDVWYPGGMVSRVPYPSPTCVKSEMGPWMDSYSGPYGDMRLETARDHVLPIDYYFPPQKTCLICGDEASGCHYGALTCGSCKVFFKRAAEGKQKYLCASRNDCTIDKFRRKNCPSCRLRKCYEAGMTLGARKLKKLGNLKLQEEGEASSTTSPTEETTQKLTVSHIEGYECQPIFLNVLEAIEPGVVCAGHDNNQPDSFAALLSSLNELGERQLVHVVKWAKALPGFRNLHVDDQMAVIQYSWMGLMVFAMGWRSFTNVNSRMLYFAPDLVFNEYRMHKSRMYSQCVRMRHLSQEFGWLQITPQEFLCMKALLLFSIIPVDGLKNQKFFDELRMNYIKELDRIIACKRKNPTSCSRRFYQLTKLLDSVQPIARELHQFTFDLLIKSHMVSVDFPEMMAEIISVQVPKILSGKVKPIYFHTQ
Description: Cell transfections and luciferase assays were performed as previously described (Miyamoto et al., Int. J. Cancer, 117:866-72 (2005) and Miyamoto et al., Proc. Natl. Acad. Sci. USA, 100:4440-4 (2003)). Briefly, bladder cancer cells at a density of 50-60% confluence in 12-well tissue culture plates were transfected with 1.5 μg of plasmid DNA using SuperFect transfection reagent (Qiagen) according to the manufacturer's instructions. […] Cells were harvested, lysed, and assayed for luciferase activity. A Dual-Luciferase Reporter Assay kit (Promega) and luminometer (TD-20/20, Turner BioSystems) were used to determine the level of luciferase activity in the cell extracts.

[10] = tested on: BBN-induced bladder cancer; conditions: rats; castration had a much stronger effect; cited from earlier work
[11] = tested on: AR-negative 5637 xenograft tumors; test: 5637 mouse xenograft, tumor progression study; assay type: in vivo, male athymic nude mouse; conditions: androgen deprivation therapy (castration and/or flutamide) at 12 weeks
Description: Bladder cancer cell lines (TCC-SUP, UMUC3, and 5637) were harvested, washed twice with PBS, and resuspended in Matrigel (BD Bioscience) at a final concentration of 1×10^7 cells/mL. Cells (1×10^6 cells in 100 μl per site) were then injected subcutaneously into the right and left flanks of 6-week-old male athymic nude mouse. […] Med. […] Hormonal pellets were replaced as required (every 90 days). Tumor weight was calculated by the following formula: tumor weight (mg)=tumor length (mm)×[tumor width (mm)]^2×0.5 (Geram et al., Cancer Chemother. Rep., 3:47-52 (1972)).

[12] = harvested TCC-SUP tumors, ASC-J9 50 mg/Kg
[13] = harvested TCC-SUP tumors, real-time RT-PCR
[14] = ARKO male mice + DHT pellet 1.5 mg/mouse/90 days, age 20 weeks
[15] = ARKO male mice + DHT pellet, age 30 weeks
[16] = ARKO male mice + DHT pellet, age 40 weeks
[17] = male ARKO mice treated with BBN and DHT, 40 weeks

SMILES: COc1ccc(C=CC(=O)C=C(O)C=Cc2ccc(OC)c(OC)c2)cc1OC [ASC-J9, 5-hydroxy-1,7-bis(3,4-dimethoxyphenyl)-1,4,6-heptatrien-3-one]
- effect on DHT-simulated growth ([1]; TCC-SUP, 1 μM ASC-J9 + 1 nM DHT): inhibited
- effect on DHT-simulated growth ([2]; UMUC3, 1 μM ASC-J9 + 1 nM DHT): inhibited
- reduction in tumor size ([3]; ASC-J9 50 mg/Kg intraperitoneal every other day, over 16 weeks of treatment): 58%
- apoptotic index of harvested tumors [3, 12]: increased
- proliferation index of harvested tumors [3, 12]: decreased
- levels of angiogenic factors and metastasis-related factors (bFGF, VEGF, MMP-9) in tumors [3, 13]: reduced
- reduction of AR expression in tumors ([3]; harvested TCC-SUP tumors, real-time RT-PCR, ASC-J9 50 mg/Kg): 39%
- latency of tumor formation ([4]; vs. control-siRNA cells with control treatment, treatment from tumor cell implantation, tumor positive at 40 mm3): substantially prolonged

SMILES: CCCCN(CCCCO)N=O [BBN, N-butyl-N-(4-hydroxybutyl)nitrosamine]
- hyperplasia in the bladder, incidence [5]: 17%
- invasive carcinoma incidence [5]: 50%
- preneoplastic bladder lesions incidence [5]: 50-67%
- preneoplastic lesions (hyperplasias or papillomas) incidence [5]: 75%
- frequency of bladder carcinomas by 40 weeks [6]: 30-100%

SMILES: C[C@]12CCC(=O)C[C@@H]1CC[C@@H]1[C@@H]2CC[C@]2(C)[C@@H](O)CC[C@@H]12 [DHT, dihydrotestosterone]
- effect on growth [1]: did not affect the growth
- increase of cell growth ([1]; TCC-SUP, 1 nM DHT, vs. ETOH): 55%
- increase of cell growth ([2]; UMUC3, 1 nM DHT, vs. ETOH): 45%
- effect on growth [2]: did not affect the growth
- effect on growth [7]: did not affect the growth
- Carcinoma, No. (%) [8, 14]: 0 (0) No. (%)
- Preneoplastic lesions, No. (%) [8, 14]: 0 (0) No. (%)
- Carcinoma, No. (%) [8, 15]: 1 (0)∵ No. (%)
- Preneoplastic lesions, No. (%) [8, 15]: 3 (38) No. (%)
- Carcinoma, No. (%) [8, 16]: 3 (25)‡‡ No. (%)
- Preneoplastic lesions, No. (%) [8, 16]: 5 (42) No. (%)
- carcinoma incidence [8, 17]: 25%
- preneoplastic lesions incidence [8, 17]: 42%

SMILES: CC(C)(O)C(=O)Nc1ccc([N+](=O)[O-])c(C(F)(F)F)c1 [HF, hydroxyflutamide]
- effect on DHT-induction of luciferase ([9]; 5 μM HF + 1 nM DHT): clearly inhibited
- agonist activity alone (luciferase) ([9]; 5 μM HF alone): only marginal agonist activity
- effect on growth [1]: did not affect the growth
- reduction of the DHT effect on cell growth ([1]; TCC-SUP, 5 μM HF + 1 nM DHT, range given for both lines): 67-75%
- effect on cell proliferation ([1]; control (scrambled siRNA) TCC-SUP subline, 1 nM DHT and/or 5 μM HF): antagonized the DHT effect
- reduction of the DHT effect on cell growth ([2]; UMUC3, 5 μM HF + 1 nM DHT, range given for both lines): 67-75%
- effect on growth [2]: did not affect the growth
- effect on cell proliferation ([2]; control (scrambled siRNA) UMUC3 subline, 1 nM DHT and/or 5 μM HF): antagonized the DHT effect
- effect on growth [7]: did not affect the growth

SMILES: CC(C)(C)NC(=O)[C@H]1CC[C@H]2[C@@H]3CC[C@H]4NC(=O)C=C[C@]4(C)[C@H]3CC[C@]12C [finasteride, Finasteride]
- development of BBN-induced bladder cancer [10]: only slightly suppressed

SMILES: CC(C)C(=O)Nc1ccc([N+](=O)[O-])c(C(F)(F)F)c1 [flutamide, Flutamide]
- tumor size vs. control mice ([3]; castration and/or antiandrogen (flutamide pellet), at 16 weeks): statistically significantly smaller
- levels of angiogenic factors and metastasis-related factors (bFGF, VEGF, MMP-9) in tumors [3, 13]: reduced
- reduction in tumor size [11]: up to 12%
- tumorigenicity of AR-expressing (control-siRNA-transfected) bladder cancer ([4]; androgen deprivation (castration or flutamide pellet)): suppressed tumorigenicity
- development of AR-siRNA-expressing tumors ([4]; castration and flutamide treatment): little effect
